In patent US8106075B2, “Insecticides” (Syngenta Crop Protection, Inc., priority 2004, dated 2012):

Tests used:
Spodoptera littoralis = experiment: B10a: Systemic Insecticide Test for Spodoptera littoralis (cotton leafworm); format: in vivo; conditions: systemic via maize seedlings, 1st instar larvae
Experimental: […] Seedlings are allowed to grow for six days. Subsequently leaves are cut and placed in a Petri dish (5 cm diameter), inoculated with twelve to fifteen 1st instar S. littoralis larvae and incubated for four days in a growth chamber (25° C., 50% r.h., 18:6 L:D photo period). Number of alive insects are counted and percentage of dead calculated. Tests were conducted with one replicate.

Plutella xylostella = experiment: B10c: Insecticide Test for Plutella xylostella (diamond back moth); format: in vivo; conditions: sprayed Chinese cabbage leaf disks, L3 larvae
Experimental: Chinese cabbage plants were sprayed with insecticide at 3, 0.8, 0.2 and 0.05 ppm. Five cm diameter leaf disks were cut and placed in a Petri dish containing 6 ml agar (0.8%). Five P. xylostella larvae L3 were introduced into Petri dishes and kept at 26±2° C., 50±10% r.h. in a dark room (two replicates per treatment). […]

Heliothis virescens = experiment: B10b: Insecticide Test for Heliothis virescens (tobacco budworm); format: in vivo; conditions: for Percent larvae showing growth reduction (compared to control): eggs on artificial diet topically treated, one week; for mortality at 0.05 ppm / mortality at 0.2 ppm / mortality at 0.8 ppm / mortality at 3 ppm: Heliothis virescens, topical, 168 h, read-out: Percent larvae mortality
Experimental: 50-60 newly laid H. virescens eggs were placed on artificial diet in Petri dishes (5 cm diameter) and topically treated with 0.8 ml solution of compounds at the following rates: 3, 0.8, 0.2, 0.05. Petri dishes are maintained at 26±2° C., 50±10% r.h. in a dark room and assessment conducted one week after application (two replicates/treatment). Larvae mortality and effects on larvae growth were compared to the control.

Diabrotica balteata = experiment: Example B2: activity against Diabrotica balteata, sprayed maize seedlings; conditions: in Zea mays, 144 h, read-out: percentage reduction in the population (% activity)

## Cc1cccc(C(=O)NCC2CO2)c1NC(=O)c1cc(C(F)(F)F)nn1-c1ncccc1Cl (stereo not shown) [Comp. 566, reference compound]
Spodoptera littoralis; 0.2 ppm
  Death rate (%) after 4 days: 0%
Spodoptera littoralis; 0.8 ppm
  Death rate (%) after 4 days: 0%
Spodoptera littoralis; 3 ppm
  Death rate (%) after 4 days: 0%
Plutella xylostella; 0.05 ppm
  Death rate (%): 0%
Plutella xylostella; 0.2 ppm
  Death rate (%): 10%
Plutella xylostella; 0.8 ppm
  Death rate (%): 5%
Plutella xylostella; 3 ppm
  Death rate (%): 25%
Heliothis virescens; 0.05 ppm
  Percent larvae showing growth reduction (compared to control): 0%
Heliothis virescens; 0.2 ppm
  Percent larvae showing growth reduction (compared to control): 0%
Heliothis virescens; 0.8 ppm
  Percent larvae showing growth reduction (compared to control): 0%
Heliothis virescens; 3 ppm
  Percent larvae showing growth reduction (compared to control): 0%
Heliothis virescens
  mortality at 0.05 ppm: 0%
  mortality at 0.2 ppm: 0%
  mortality at 0.8 ppm: 0%
  mortality at 3 ppm: 0%

## Cc1cc(Cl)cc(C(=O)NCC2CCO2)c1NC(=O)c1cc(C(F)(F)F)nn1-c1ncccc1Cl (stereo not shown) [Compound P25, N-(4-chloro-2-methyl-6-[([oxetan-2-ylmethyl]amino)carbonyl]phenyl)-1-(3-chloro-2-pyridinyl)-3-(trifluoromethyl)-1H-pyrazole-5-carboxamide]
Diabrotica balteata
  inhibition at 400 ppm: > 80%

## Cc1cccc(C(=O)NCC2CC2)c1NC(=O)c1cc(C(F)(F)F)nn1-c1ncccc1Cl [Compound P41]
Spodoptera littoralis; 0.2 ppm
  Death rate (%) after 4 days: 20%
Spodoptera littoralis; 0.8 ppm
  Death rate (%) after 4 days: 80%
Spodoptera littoralis; 3 ppm
  Death rate (%) after 4 days: 100%
Plutella xylostella; 0.05 ppm
  Death rate (%): 0%
Plutella xylostella; 0.2 ppm
  Death rate (%): 0%
Plutella xylostella; 0.8 ppm
  Death rate (%): 80%
Plutella xylostella; 3 ppm
  Death rate (%): 60%
Heliothis virescens; 0.05 ppm
  Percent larvae showing growth reduction (compared to control): 0%
Heliothis virescens; 0.2 ppm
  Percent larvae showing growth reduction (compared to control): 45%
Heliothis virescens; 0.8 ppm
  Percent larvae showing growth reduction (compared to control): 100%
Heliothis virescens; 3 ppm
  Percent larvae showing growth reduction (compared to control): 100%
Heliothis virescens
  mortality at 0.05 ppm: 0%
  mortality at 0.2 ppm: 0%
  mortality at 0.8 ppm: 0%
  mortality at 3 ppm: 0%
